Results as given in ChEMBL document CHEMBL3639260, “5-membered nitrogen containing heterocyclic derivatives and pharmaceutical compositions comprising the same” (2015).

Target: Xanthine dehydrogenase/oxidase (Bos taurus, UniProt P80457)
Assay: Inhibition Assay: Xanthine oxidase (from bovine milk, Sigma) was prepared with phosphate-buffered saline (PBS) at 0.02 units/mL, and then the solution was added to 96 well plates at 50 μL/well. In addition, test compounds diluted with PBS were added at 50 μL/well. Xanthine (Wako) at 200 μM prepared with PBS was added at 100 μL/well, and the reaction was conducted for 10 minutes at room temperature. Absorbance at 290 nm was measured using a microplate reader SpectraMax Plus 384 (Molecular device). The absorbance under a condition without xanthine is 0%, and control without test compounds is 100%.

Chain of Xanthine dehydrogenase/oxidase (P80457 whole entry): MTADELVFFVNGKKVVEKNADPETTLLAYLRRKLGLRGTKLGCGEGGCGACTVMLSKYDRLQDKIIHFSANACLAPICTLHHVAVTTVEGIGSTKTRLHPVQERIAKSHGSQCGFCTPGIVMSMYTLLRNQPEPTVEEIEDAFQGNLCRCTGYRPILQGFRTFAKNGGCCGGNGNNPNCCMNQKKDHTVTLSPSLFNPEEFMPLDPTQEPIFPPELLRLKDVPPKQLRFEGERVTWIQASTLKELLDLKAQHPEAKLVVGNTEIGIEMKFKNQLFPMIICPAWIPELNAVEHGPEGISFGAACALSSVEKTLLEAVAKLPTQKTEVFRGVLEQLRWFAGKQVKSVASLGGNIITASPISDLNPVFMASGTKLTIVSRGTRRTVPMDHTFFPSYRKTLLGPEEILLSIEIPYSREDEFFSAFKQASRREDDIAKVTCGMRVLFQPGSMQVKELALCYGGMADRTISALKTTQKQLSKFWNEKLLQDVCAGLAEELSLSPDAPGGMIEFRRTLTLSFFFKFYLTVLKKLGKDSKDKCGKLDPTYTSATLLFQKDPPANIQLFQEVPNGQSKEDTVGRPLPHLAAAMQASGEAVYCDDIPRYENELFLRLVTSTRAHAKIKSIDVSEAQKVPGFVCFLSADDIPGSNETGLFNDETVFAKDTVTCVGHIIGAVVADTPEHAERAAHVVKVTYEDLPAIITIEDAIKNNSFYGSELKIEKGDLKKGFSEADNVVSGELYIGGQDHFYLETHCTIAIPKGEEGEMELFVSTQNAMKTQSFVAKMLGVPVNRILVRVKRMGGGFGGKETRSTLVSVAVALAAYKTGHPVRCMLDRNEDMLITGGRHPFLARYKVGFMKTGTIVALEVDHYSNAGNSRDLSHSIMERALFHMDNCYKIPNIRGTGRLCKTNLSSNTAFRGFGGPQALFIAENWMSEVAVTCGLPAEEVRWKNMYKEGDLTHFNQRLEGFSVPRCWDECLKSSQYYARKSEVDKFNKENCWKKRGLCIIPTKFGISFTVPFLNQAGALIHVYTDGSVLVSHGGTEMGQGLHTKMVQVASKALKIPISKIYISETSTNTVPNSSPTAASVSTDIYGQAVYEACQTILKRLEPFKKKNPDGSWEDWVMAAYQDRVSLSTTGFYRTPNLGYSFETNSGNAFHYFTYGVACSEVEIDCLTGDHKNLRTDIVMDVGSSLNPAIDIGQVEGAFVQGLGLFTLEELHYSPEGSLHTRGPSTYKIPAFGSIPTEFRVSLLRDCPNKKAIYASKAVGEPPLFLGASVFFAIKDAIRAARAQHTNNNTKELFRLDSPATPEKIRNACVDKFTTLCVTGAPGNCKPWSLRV

| Structure (SMILES) | IC50 |
| --- | --- |
| N#Cc1cn(-c2ccc(C(=O)O)cc2)cc1-c1ccc(OCCCO)cc1 | 63.2 nM |
| N#Cc1cn(-c2ccc(C(=O)O)cc2)cc1-c1ccccc1OCCOc1ccccc1 | 47 nM |
